Results taken from patent publication US12357623B2, “Method for treating a disease or condition using a pyrazole compound or formulation thereof” (Rigel Pharmaceuticals, Inc., priority 2021, dated 2025).
Where a name gives a salt, the structure may show the parent alone.

Assays:
[1] = Pharmacokinetics in cynomolgus monkeys (co-crystal and spray-dried dispersion capsules); type: in vivo; settings: male cynomolgus monkeys (n=3/group), capsule equivalent to 25 mg compound I-1
Method: Two groups of male cynomolgus monkeys (n=3/group) were administered test articles in a 3-way crossover design as indicated in Table 2. The washout period between doses was 3-4 days. Test article capsules were prepared such that each capsule contained an equivalent of 25 mg of free base compound I-1. The organic stock solution of compound I-1 was prepared at a concentration of 5 mg/ml using TPGS/PEG400/PG, and was diluted with apple juice within 1 hour of dosing (PO) at 1 part stock solution to 3 parts apple juice.
FIGS. 11-14 provide graphs of the plasma concentrations obtained from administering the co-crystal formulations of compound I-1 to monkeys. And Table 3 provides pharmacokinetic (PK) data for the co-crystal formulations, including the average area under the curve (AUC) and percent bioavailability.
FIG. 19 provides PK data for one embodiment of the disclosed spray-dried formulation, and the organic/juice formulation.

[2] = Hygroscopicity evaluation (DVS) of salts of compound I-18; type: physicochemical; settings: 25° C.
Method: To investigate the solid form stability as a function of humidity, DVS isotherm plot of the K salt, Arginine salt, Choline salt and Tris salt were collected at 25° C. between 0 and 95% RH.

[3] = Physical and chemical stability of salts of compound I-18; type: physicochemical; settings: for Area (%) of peak at RRT 1.00: main peak; for Area (%) of peak at RRT 1.17: peak corresponds to I-1 formed by hydrolysis; for Initial purity: before storage
Method: The physical and chemical stability of the K salt, Arginine salt, Choline salt and Tris salt were evaluated under conditions of 25° C./60% RH and 40° C./75% RH for 1 week. Each sample was added into 3 mL glass vials, sealed by parafilm with several holes, and kept under tested condition. After one week, samples was taken for XRPD and HPLC purity test.

[4] = 25° C./60% RH, 1 week, listed as potassium salt
[5] = 40° C./75% RH, 1 week, listed as potassium salt
[6] = Initial, listed as potassium salt
[7] = 25° C./60% RH, 1 week, listed as tris salt
[8] = 40° C./75% RH, 1 week, listed as tris salt
[9] = 25° C./60% RH, 1 week, listed as choline salt
[10] = 25° C./60% RH/1 week, listed as Choline salt
[11] = 40° C./75% RH, 1 week, listed as choline salt
[12] = Initial, listed as choline salt
[13] = 25° C./60% RH, 1 week, listed as arginine salt
[14] = 40° C./75% RH, 1 week, listed as arginine salt
[15] = Initial, listed as arginine salt

## CCO[C@H]1CC[C@H](n2cc(NC(=O)c3csc(-c4cn[nH]c4)n3)c(-c3nc(F)ccc3F)n2)CC1.O=P(O)(O)O [Compound I-104, N-(3-(3,6-difluoropyridin-2-yl)-1-((1r, 4r)-4-ethoxycyclohexyl)-1H-pyrazol-4-yl)-2-(1H-pyrazol-4-yl)thiazole-4-carboxamide phosphate]
[1]
  percent bioavailability (% F) of compound I-1: 7.9%

## CCO[C@H]1CC[C@H](n2cc(NC(=O)c3csc(-c4cnn(C(C)OP(=O)(O)O)c4)n3)c(-c3nc(F)ccc3F)n2)CC1 (stereo partly drawn) [Compound I-108, potassium 1-(4-(4-((3-(3,6-difluoropyridin-2-yl)-1-((1r, 4r)-4-ethoxycyclohexyl)-1H-pyrazol-4-yl)carbamoyl)thiazol-2-yl)-1H-pyrazol-1-yl)ethyl hydrogen phosphate]
[2]; at 70% RH, listed as K salt
  water uptake (DVS): 0.42%
[2]; at 95% RH, listed as K salt
  water uptake (DVS): 16.5%
[3]; 25° C./60% RH, 1 week
  Area (%) of peak at RRT 1.14: <0.04%
  Area (%) of peak at RRT 1.40: 0.25%
  Area (%) of peak at RRT 1.44: 0.30%
  Area (%) of peak at RRT 1.70: 0.27%
  Area (%) of peak at RRT 1.72: 0.78%
  Area (%) of peak at RRT 1.81: <0.04%
[3]; 25° C./60% RH, 1 week, listed as K salt
  HPLC purity change: slight purity decrease
[3]; [4]
  Area (%) of peak at RRT 1.00: 96.26%
  Area (%) of peak at RRT 1.17: 2.14%
[3]; 25° C./60% RH/1 week, listed as K salt
  Form change (XRPD): no form change and No
[3]; 40° C./75% RH, 1 week
  Area (%) of peak at RRT 1.14: 0.05%
  Area (%) of peak at RRT 1.40: 0.39%
  Area (%) of peak at RRT 1.44: 0.24%
  Area (%) of peak at RRT 1.70: 0.24%
  Area (%) of peak at RRT 1.72: 0.83%
  Area (%) of peak at RRT 1.81: 0.04%
[3]; 40° C./75% RH, 1 week, listed as K salt
  HPLC purity change: slight purity decrease
[3]; [5]
  Area (%) of peak at RRT 1.00: 96.40%
  Area (%) of peak at RRT 1.17: 1.80%
[3]; 40° C./75% RH/1 week, listed as K salt
  Form change (XRPD): a form change was observed and Yes
[3]; Initial
  Area (%) of peak at RRT 1.14: <0.04%
  Area (%) of peak at RRT 1.40: 0.23%
  Area (%) of peak at RRT 1.44: 0.21%
  Area (%) of peak at RRT 1.70: 0.18%
  Area (%) of peak at RRT 1.72: 0.77%
  Area (%) of peak at RRT 1.81: <0.04%
[3]; [6]
  Area (%) of peak at RRT 1.00: 97.27%
  Area (%) of peak at RRT 1.17: 1.33%
[3]; listed as K salt
  Initial purity: 97.27 area %

## CCO[C@H]1CC[C@H](n2cc(NC(=O)c3csc(-c4cnn(C(C)OP(=O)(O)O)c4)n3)c(-c3nc(F)ccc3F)n2)CC1 (stereo partly drawn) [Compound I-49, 1-(4-(4-((3-(3,6-difluoropyridin-2-yl)-1-((1r, 4r)-4-ethoxycyclohexyl)-1H-pyrazol-4-yl)carbamoyl)thiazol-2-yl)-1H-pyrazol-1-yl)ethyl dihydrogen phosphate tris salt]
[2]; at 70% RH, listed as Tris salt
  water uptake (DVS): 6.06%
[2]; at 95% RH, listed as Tris salt
  water uptake (DVS): 39.5%
[3]; 25° C./60% RH, 1 week
  Area (%) of peak at RRT 1.13: 0.06%
[3]; [7]
  Area (%) of peak at RRT 0.77: <0.03%
  Area (%) of peak at RRT 1.45: 0.35%
  Area (%) of peak at RRT 1.71: 0.80%
  Area (%) of peak at RRT 1.73: 0.55%
  HPLC purity change: no HPLC purity decrease
  Area (%) of peak at RRT 1.00: 96.61%
  Area (%) of peak at RRT 1.17: 1.63%
[3]; 25° C./60% RH/1 week, listed as Tris salt
  Form change (XRPD): no form change and No
[3]; [8]
  Area (%) of peak at RRT 0.77: 0.03%
  Area (%) of peak at RRT 1.45: 0.47%
  Area (%) of peak at RRT 1.71: 0.88%
  Area (%) of peak at RRT 1.73: 0.84%
  HPLC purity change: a purity decrease was observed
  Area (%) of peak at RRT 1.00: 95.03%
  Area (%) of peak at RRT 1.17: 2.69%
[3]; 40° C./75% RH/1 week, listed as Tris salt
  Form change (XRPD): no form change and No
[3]; Initial, listed as tris salt
  Area (%) of peak at RRT 0.77: <0.03%
  Area (%) of peak at RRT 1.13: 0.07%
  Area (%) of peak at RRT 1.45: 0.37%
  Area (%) of peak at RRT 1.71: 0.86%
  Area (%) of peak at RRT 1.73: 0.76%
  Area (%) of peak at RRT 1.00: 96.06%
  Area (%) of peak at RRT 1.17: 1.87%
[3]; listed as Tris salt
  Initial purity: 96.06 area %

## CCO[C@H]1CC[C@H](n2cc(NC(=O)c3csc(-c4cnn(C(C)OP(=O)(O)O)c4)n3)c(-c3nc(F)ccc3F)n2)CC1 (stereo partly drawn) [Compound I-111, 1-(4-(4-((3-(3,6-difluoropyridin-2-yl)-1-((1r, 4r)-4-ethoxycyclohexyl)-1H-pyrazol-4-yl)carbamoyl)thiazol-2-yl)-1H-pyrazol-1-yl)ethyl dihydrogen phosphate choline salt]
[2]; at 70% RH, listed as Choline salt
  water uptake (DVS): 3.66%
[2]; at 95% RH, listed as Choline salt
  water uptake (DVS): 32.4%
[3]; [9]
  Area (%) of peak at RRT 0.77: 0.04%
  Area (%) of peak at RRT 1.35: 0.10%
  Area (%) of peak at RRT 1.45: 0.07%
  Area (%) of peak at RRT 1.71: 0.05%
  Area (%) of peak at RRT 1.73: 0.46%
  HPLC purity change: no HPLC purity decrease
  Area (%) of peak at RRT 1.00: 98.66%
  Area (%) of peak at RRT 1.17: 0.58%
[3]; [10]
  Form change (XRPD): no form change and No
  Purity/Initial purity: 100.0%
[3]; [11]
  Area (%) of peak at RRT 0.77: 0.04%
  Area (%) of peak at RRT 1.35: 0.14%
  Area (%) of peak at RRT 1.45: 0.11%
  Area (%) of peak at RRT 1.71: 0.08%
  Area (%) of peak at RRT 1.73: 0.46%
  HPLC purity change: a purity decrease was observed
  Area (%) of peak at RRT 1.00: 97.81%
  Area (%) of peak at RRT 1.17: 1.31%
[3]; 40° C./75% RH/1 week, listed as Choline salt
  Form change (XRPD): no form change and No
[3]; Initial
  Area (%) of peak at RRT 1.35: <0.03%
[3]; [12]
  Area (%) of peak at RRT 0.77: 0.03%
  Area (%) of peak at RRT 1.13: 0.06%
  Area (%) of peak at RRT 1.45: 0.06%
  Area (%) of peak at RRT 1.71: 0.06%
  Area (%) of peak at RRT 1.73: 0.33%
  Area (%) of peak at RRT 1.00: 98.70%
  Area (%) of peak at RRT 1.17: 0.75%
[3]; listed as Choline salt
  Initial purity: 98.70 area %

## CCO[C@H]1CC[C@H](n2cc(NC(=O)c3csc(-c4cnn(C(C)OP(=O)(O)O)c4)n3)c(-c3nc(F)ccc3F)n2)CC1 (stereo partly drawn) [Compound I-110, 1-(4-(4-((3-(3,6-difluoropyridin-2-yl)-1-((1r, 4r)-4-ethoxycyclohexyl)-1H-pyrazol-4-yl)carbamoyl)thiazol-2-yl)-1H-pyrazol-1-yl)ethyl dihydrogen phosphate arginine salt]
[2]; at 80% RH
  water uptake (DVS): 1.43%
[2]; from water uptake at 80% RH
  hygroscopicity (DVS): slight hygroscopic
[3]; 25° C./60% RH, 1 week
  Area (%) of peak at RRT 1.13: 0.06%
[3]; [13]
  Area (%) of peak at RRT 0.77: 0.03%
  Area (%) of peak at RRT 1.35: 0.06%
  Area (%) of peak at RRT 1.45: 0.50%
  Area (%) of peak at RRT 1.71: 0.74%
  Area (%) of peak at RRT 1.73: 0.61%
  HPLC purity change: slight purity decrease
  Area (%) of peak at RRT 1.00: 95.31%
  Area (%) of peak at RRT 1.17: 2.68%
[3]; 25° C./60% RH/1 week, listed as Arginine salt
  Form change (XRPD): no form change and No
[3]; 40° C./75% RH, 1 week
  Area (%) of peak at RRT 1.13: 0.06%
[3]; [14]
  Area (%) of peak at RRT 0.77: 0.04%
  Area (%) of peak at RRT 1.35: 0.11%
  Area (%) of peak at RRT 1.45: 0.47%
  Area (%) of peak at RRT 1.71: 0.73%
  Area (%) of peak at RRT 1.73: 0.60%
  HPLC purity change: slight purity decrease
  Area (%) of peak at RRT 1.00: 95.50%
  Area (%) of peak at RRT 1.17: 2.48%
[3]; 40° C./75% RH/1 week, listed as Arginine salt
  Form change (XRPD): no form change and No
[3]; Initial
  Area (%) of peak at RRT 1.35: <0.03%
[3]; [15]
  Area (%) of peak at RRT 0.77: <0.03%
  Area (%) of peak at RRT 1.13: <0.03%
  Area (%) of peak at RRT 1.45: 0.44%
  Area (%) of peak at RRT 1.71: 0.73%
  Area (%) of peak at RRT 1.73: <0.53%
  Area (%) of peak at RRT 1.00: 95.91%
  Area (%) of peak at RRT 1.17: 2.39%
[3]; listed as Arginine salt
  Initial purity: 95.91 area %
